Results from US20230085307A1, “PYRIDAZINONE COMPOUND AND HERBICIDE” (NISSAN CHEMICAL CORPORATION, priority 2019, published 2023).

Legend:
chickweed [1] = experiment: Test Example 5: herbicidal effect by foliage application, plastic box (Table 20, symbol P); type: in vivo, common chickweed (Stellaria media); details: foliage application, three weeks after application
How it was run: (§1)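 Plants were sown into sterilized diluvial soil under about 1.5 cm cover and kept in a greenhouse at 25° C. to 30° C. Fourteen days on, foliage received an even spray of the diluted emulsion. Herbicidal or crop effect was judged three weeks afterwards.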

southern crabgrass = experiment: Test Example 4: herbicidal effect by soil treatment (Table 19, symbol F); type: in vivo, southern crabgrass (Digitaria ciliaris)
How it was run: (§2)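 In this soil treatment, the formulated compound reached the seeds only through the soil: seeds were buried about 1.5 cm deep in sterilized diluvial soil, then the diluted emulsion was sprayed over the surface. After three weeks at 25° C. to 30° C. in a greenhouse, effects were graded on criteria from an earlier test.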

blackgrass [2] = experiment: Test Example 5: herbicidal effect by foliage application, plastic box (Table 20, symbol J); type: in vivo, blackgrass (Alopecurus myosuroides); details: foliage application, three weeks after application
How it was run: as §1

wild oat [3] = experiment: Test Example 4: herbicidal effect by soil treatment (Table 19, symbol I); type: in vivo, wild oat (Avena fatua)
How it was run: as §2

Japanese bulrush [4] = experiment: Test Example 1: herbicidal activity, application before weed generation under submerged conditions (Table 16, symbol B); type: in vivo, Japanese bulrush (Schoenoplectus juncoides)
How it was run: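 Submerged Wagner pots (alluvial soil, 4 cm water) sown with weed seeds and planted with 2.5-leaf rice seedlings; emulsifiable concentrate diluted in water applied to water surface on sowing day. Held in greenhouse at 25-30 °C; injury scored 0-5 by herbicidal rate after three weeks.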

late watergrass = experiment: Test Example 2: herbicidal activity, application during weed generation under submerged conditions (Table 17, symbol A); type: in vivo, late watergrass (Echinochloa oryzicola); details: application during weed generation, submerged conditions
How it was run: (§3)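 3-wk visual-criteria score after one water-surface dose. Emulsion formulation, water-diluted to set rate; applied at 1–2 leaf stage; alluvial soil, 4 cm standing water; seeds co-sown; greenhouse 25–30° C.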

redroot pigweed [5] = experiment: Test Example 5: herbicidal effect by foliage application, plastic box (Table 20, symbol N); type: in vivo, redroot pigweed (Amaranthus retroflexus); details: foliage application, three weeks after application
How it was run: as §1

barnyard grass = experiment: Test Example 5: herbicidal effect by foliage application, plastic box (Table 20, symbol H); type: in vivo, barnyard grass (Echinochloa crus-galli); details: foliage application, three weeks after application
How it was run: as §1

oval-leafed pondweed = experiment: Test Example 2: herbicidal activity, application during weed generation under submerged conditions (Table 17, symbol C); type: in vivo, oval-leafed pondweed (Monochoria vaginalis); details: application during weed generation, submerged conditions
How it was run: as §3

green foxtail = experiment: Test Example 4: herbicidal effect by soil treatment (Table 19, symbol G); type: in vivo, green foxtail (Setaria viridis)
How it was run: as §2

Japanese bulrush [6] = experiment: Test Example 2: herbicidal activity, application during weed generation under submerged conditions (Table 17, symbol B); type: in vivo, Japanese bulrush (Schoenoplectus juncoides); details: application during weed generation, submerged conditions
How it was run: as §3

blackgrass [7] = experiment: Test Example 4: herbicidal effect by soil treatment (Table 19, symbol J); type: in vivo, blackgrass (Alopecurus myosuroides)
How it was run: as §2

redroot pigweed [8] = experiment: Test Example 4: herbicidal effect by soil treatment (Table 19, symbol N); type: in vivo, redroot pigweed (Amaranthus retroflexus)
How it was run: as §2

chickweed [9] = experiment: Test Example 4: herbicidal effect by soil treatment (Table 19, symbol P); type: in vivo, common chickweed (Stellaria media)
How it was run: as §2

velvetleaf = experiment: Test Example 4: herbicidal effect by soil treatment (Table 19, symbol M); type: in vivo, velvetleaf (Abutilon theophrasti)
How it was run: as §2

rice flat sedge = experiment: Test Example 3: herbicidal effect by foliage application, Wagner pot (Table 18, symbol E); type: in vivo, rice flat sedge (Cyperus iria)
How it was run: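 Plants were sown in alluvial soil held under 0.1–0.5 cm standing water and grown 14 days in a greenhouse at 25–30 °C. An emulsifiable formulation, water-diluted to the set dose, was then sprayed onto the foliage, and effects were scored three weeks later using previously defined criteria.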

wild oat [10] = experiment: Test Example 5: herbicidal effect by foliage application, plastic box (Table 20, symbol I); type: in vivo, wild oat (Avena fatua); details: foliage application, three weeks after application
How it was run: as §1

[11] = amount of applied herbicide 320 g/ha
[12] = amount of applied herbicide 323 g/ha

Row | Compound | P: chickweed, herbicidal effect grade (chickweed [1]; 320 g/ha) | F: southern crabgrass, herbicidal effect grade (southern crabgrass; [11]) | J: blackgrass, herbicidal effect grade (blackgrass [2]; 320 g/ha) | I: wild oat, herbicidal effect grade (wild oat [3]; [11]) | Herbicidal effect, B: Japanese bulrush (Japanese bulrush [4]; [11]) | herbicidal effect rating, A: late watergrass (late watergrass; AAH 320 g/ha) | N: redroot pigweed, herbicidal effect grade (redroot pigweed [5]; 320 g/ha) | H: barnyard grass, herbicidal effect grade (barnyard grass; 320 g/ha) | herbicidal effect rating, C: oval-leafed pondweed (oval-leafed pondweed; AAH 320 g/ha) | G: green foxtail, herbicidal effect grade (green foxtail; [11]) | herbicidal effect rating, B: Japanese bulrush (Japanese bulrush [6]; AAH 320 g/ha) | J: blackgrass, herbicidal effect grade (blackgrass [7]; [11]) | N: redroot pigweed, herbicidal effect grade (redroot pigweed [8]; [11]) | P: chickweed, herbicidal effect grade (chickweed [9]; [11]) | M: velvetleaf, herbicidal effect grade (velvetleaf; [11]) | herbicidal effect on rice flat sedge (E) (rice flat sedge; 320 g/ha) | I: wild oat, herbicidal effect grade (wild oat [10]; 320 g/ha) | further results
1 | CCOc1ccc2c(-c3c(O)c(C)nn(C)c3=O)c(-c3ccccc3OCC)sc2c1 [3-093] | 5 (Herbicidal rate of 90% or more (almost completely withered)) | 5 (Herbicidal rate of 90% or more (almost completely withered)) | 4 (Herbicidal rate of 70% or more and less than 90%) | 3 (Herbicidal rate of 40% or more and less than 70%) | 5 (Herbicidal rate of 90% or more (almost completely withered)) | 3 (Herbicidal rate of 40% or more and less than 70%) | 5 (Herbicidal rate of 90% or more (almost completely withered)) | 5 (Herbicidal rate of 90% or more (almost completely withered)) | 5 (Herbicidal rate of 90% or more (almost completely withered)) | 5 (Herbicidal rate of 90% or more (almost completely withered)) | 5 (Herbicidal rate of 90% or more (almost completely withered)) | 3 (Herbicidal rate of 40% or more and less than 70%) | 5 (Herbicidal rate of 90% or more (almost completely withered)) | 4 (Herbicidal rate of 70% or more and less than 90%) | 3 (Herbicidal rate of 40% or more and less than 70%) | 5 (Herbicidal rate of 90% or more (almost completely withered)) | 4 (Herbicidal rate of 70% or more and less than 90%) | 
2 | CCCC(=O)Oc1c(C)nn(C)c(=O)c1-c1c(-c2ccccc2OCC)sc2cc(OCC)ccc12 [3-094] |  |  |  |  |  |  |  |  |  |  |  |  |  |  |  |  |  | P: chickweed, herbicidal effect grade (chickweed [1]; 323 g/ha): 5 (Herbicidal rate of 90% or more (almost completely withered)); F: southern crabgrass, herbicidal effect grade (southern crabgrass; [12]): 3 (Herbicidal rate of 40% or more and less than 70%); J: blackgrass, herbicidal effect grade (blackgrass [2]; 323 g/ha): 4 (Herbicidal rate of 70% or more and less than 90%); I: wild oat, herbicidal effect grade (wild oat [3]; [12]): 0 (Herbicidal rate of 5% or less (almost no effect)); Herbicidal effect, B: Japanese bulrush (Japanese bulrush [4]; [12]): 5 (Herbicidal rate of 90% or more (almost completely withered)); herbicidal effect rating, A: late watergrass (late watergrass; AAH 323 g/ha): 3 (Herbicidal rate of 40% or more and less than 70%); N: redroot pigweed, herbicidal effect grade (redroot pigweed [5]; 323 g/ha): 5 (Herbicidal rate of 90% or more (almost completely withered)); H: barnyard grass, herbicidal effect grade (barnyard grass; 323 g/ha): 5 (Herbicidal rate of 90% or more (almost completely withered)); herbicidal effect rating, C: oval-leafed pondweed (oval-leafed pondweed; AAH 323 g/ha): 4 (Herbicidal rate of 70% or more and less than 90%); G: green foxtail, herbicidal effect grade (green foxtail; [12]): 3 (Herbicidal rate of 40% or more and less than 70%); herbicidal effect rating, B: Japanese bulrush (Japanese bulrush [6]; AAH 323 g/ha): 4 (Herbicidal rate of 70% or more and less than 90%); J: blackgrass, herbicidal effect grade (blackgrass [7]; [12]): 2 (Herbicidal rate of 20% or more and less than 40%); N: redroot pigweed, herbicidal effect grade (redroot pigweed [8]; [12]): 5 (Herbicidal rate of 90% or more (almost completely withered)); P: chickweed, herbicidal effect grade (chickweed [9]; [12]): 4 (Herbicidal rate of 70% or more and less than 90%); M: velvetleaf, herbicidal effect grade (velvetleaf; [12]): 0 (Herbicidal rate of 5% or less (almost no effect)); herbicidal effect on rice flat sedge (E) (rice flat sedge; 323 g/ha): 5 (Herbicidal rate of 90% or more (almost completely withered)); I: wild oat, herbicidal effect grade (wild oat [10]; 323 g/ha): 5 (Herbicidal rate of 90% or more (almost completely withered))
3 | CCCOc1ccc2c(-c3c(O)c(C)nn(C)c3=O)c(-c3ccccc3OC)sc2c1 [3-099] | 5 (Herbicidal rate of 90% or more (almost completely withered)) | 5 (Herbicidal rate of 90% or more (almost completely withered)) | 5 (Herbicidal rate of 90% or more (almost completely withered)) | 0 (Herbicidal rate of 5% or less (almost no effect)) | 5 (Herbicidal rate of 90% or more (almost completely withered)) | 3 (Herbicidal rate of 40% or more and less than 70%) | 5 (Herbicidal rate of 90% or more (almost completely withered)) | 5 (Herbicidal rate of 90% or more (almost completely withered)) | 3 (Herbicidal rate of 40% or more and less than 70%) | 5 (Herbicidal rate of 90% or more (almost completely withered)) | 4 (Herbicidal rate of 70% or more and less than 90%) | 4 (Herbicidal rate of 70% or more and less than 90%) | 5 (Herbicidal rate of 90% or more (almost completely withered)) | 3 (Herbicidal rate of 40% or more and less than 70%) | 3 (Herbicidal rate of 40% or more and less than 70%) | 5 (Herbicidal rate of 90% or more (almost completely withered)) | 2 (Herbicidal rate of 20% or more and less than 40%) | 
4 | CCCOc1ccc2c(-c3c(O)c(C)nn(C)c3=O)c(-c3ccccc3OCC)sc2c1 [3-103] | 5 (Herbicidal rate of 90% or more (almost completely withered)) | 5 (Herbicidal rate of 90% or more (almost completely withered)) | 4 (Herbicidal rate of 70% or more and less than 90%) | 0 (Herbicidal rate of 5% or less (almost no effect)) | 5 (Herbicidal rate of 90% or more (almost completely withered)) | 2 (Herbicidal rate of 20% or more and less than 40%) | 5 (Herbicidal rate of 90% or more (almost completely withered)) | 5 (Herbicidal rate of 90% or more (almost completely withered)) | 3 (Herbicidal rate of 40% or more and less than 70%) | 4 (Herbicidal rate of 70% or more and less than 90%) | 3 (Herbicidal rate of 40% or more and less than 70%) | 3 (Herbicidal rate of 40% or more and less than 70%) | 4 (Herbicidal rate of 70% or more and less than 90%) | 5 (Herbicidal rate of 90% or more (almost completely withered)) | 3 (Herbicidal rate of 40% or more and less than 70%) | 5 (Herbicidal rate of 90% or more (almost completely withered)) | 2 (Herbicidal rate of 20% or more and less than 40%) | 
